{
  "source": "patent US7256209B2",
  "about": "“Pyrazole derivatives and diabetic medicine containing them” (Ajinomoto Co., Inc., priority 2000, dated 2007)",
  "key": {"male Wistar rats [1]": {"test_system": "male Wistar rats", "assay": "Activity on rat's sugar urine excretion", "type": "in vivo", "conditions": "for The amount of excreted glucose in urine: 100 mg/kg oral, urine collected 24 hours, per day and individual; for activity on urinary glucose excretion as compared to Example 35 of WO01/16147 (in words): compared to Referential Example 1, Table 2; for activity on urinary glucose excretion (in words): oral administration, rat", "protocol": "5-week old male Wistar rats (purchased from Charles River Japan, Inc.) were used in the experiment after they were housed in a metabolic cage for about one week in advance. The test compounds were suspended in olive oil and 20 mg/ml solution was prepared so that the dosage given per 1 kg of the weight of the rats was 5 ml.\nAfter the rats were not fed for 4 hours, the test compounds were orally administered to them at 11 a.m. Their urine was collected, from that taken just after the administration to that taken 24 hours after the administration and its volume was measured. Then, the concentration of glucose in urine was measured by glucose oxidase method and urinary glucose excreted per a day and an individual was calculated."}, "[2]": {"test_system": "Renal brush border membrane glucose uptake", "assay": "Inhibiting activity on renal brush border membrane glucose uptake", "type": "biochemical", "conditions": "rat renal brush border membrane, sodium-dependent 14C-D-glucose uptake", "protocol": "The test compound was dissolved in 100 mM Mannitol-10 mM HEPES/Tris (pH 7.4) and solutions having various concentrations were prepared.\nRenal brush border membrane was prepared from a rat kidney and the solutions of the test compounds were added thereto and the product was incubated at 37° C. for 30 minutes. Then ^14C-D-glucose was added and the mixture was incubated for 1 minute. After tie reaction of glucose uptake was stopped by a solution containing 1 mM of phloridzin, the activity of ^14C-D-glucose on ^14C was measured by a liquid scintillation counter. The intensity of inhibition was calculated by subtracting the amount of taken glucose that is independent on sodium from the amount of taken glucose of the object samples."}, "male Wistar rats [3]": {"test_system": "male Wistar rats", "assay": "Activity on rat's sugar urine excretion", "type": "in vivo", "conditions": "for The amount of excreted glucose in urine: urine collected 24 hours, per day and individual"}},
  "data": [
    {"smiles": "Cc1[nH]nc(O[C@@H]2O[C@H](CO)[C@@H](O)[C@H](O)[C@H]2O)c1Cc1ccc(OC(C)C)cc1", "note": "[Referential Example Compound 1, 4-[(4-isopropoxyphenyl)methyl]-5-methyl-1H-pyrazole-3-O-β-D-glucopyranoside, reference compound]", "values": [
      {"measurement": "The amount of excreted glucose in urine", "setting": "male Wistar rats [1]", "result": 14, "unit": "mg"}
    ]},
    {"smiles": "CSc1ccc(Cc2c(O[C@@H]3O[C@H](CO)[C@@H](O)[C@H](O)[C@H]3O)n[nH]c2C(F)(F)F)cc1", "note": "[Example Compound 1, 4-((4-methylthiophenyl)methyl)-5-(trifluoromethyl)-1H-pyrazole-3-O-β-D-glucopyranoside]", "values": [
      {"measurement": "Inhibition intensity (concentration of the test compounds)", "setting": "[2]; 10 μM test compound", "result": "84% (10 μM)"}
    ]},
    {"smiles": "COC(=O)OC[C@H]1O[C@@H](Oc2nn(C(C)C)c(C)c2Cc2ccc(C)c(F)c2)[C@H](O)[C@@H](O)[C@@H]1O", "note": "[Example Compound 14, 4′-[(3′-fluoro-4′-methylphenyl)methyl]-1′-isopropyl-5′-methyl-1H-pyrazole-3′-O-(6-carbomethoxy)-β-D-glucopyranoside]", "values": [
      {"measurement": "The amount of excreted glucose in urine", "setting": "male Wistar rats [1]", "result": 918, "unit": "mg"},
      {"measurement": "activity on urinary glucose excretion as compared to Example 35 of WO01/16147 (in words)", "setting": "male Wistar rats [1]", "result": "much higher activity"},
      {"measurement": "activity on urinary glucose excretion (in words)", "setting": "male Wistar rats [1]", "result": "particularly high activity"}
    ]},
    {"smiles": "CCc1ccc(Cc2c(O[C@@H]3O[C@H](COC(=O)OC)[C@@H](O)[C@H](O)[C@H]3O)nn(Cc3ccc(OC)cc3)c2C(F)(F)F)cc1", "note": "[Example Compound 6, 4′-[(4′-ethylphenyl)methyl]-1′-[(4′-methoxyphenyl)methyl]-5′-trifluoromethyl-1H-pyrazole-3′-O-(6-carbomethoxy)-β-D-glucopyranoside]", "values": [
      {"measurement": "The amount of excreted glucose in urine", "setting": "male Wistar rats [1]", "result": 59, "unit": "mg"}
    ]},
    {"smiles": "CCc1ccc(Cc2c(O[C@@H]3O[C@H](C(=O)O)[C@@H](O)[C@H](O)[C@H]3O)n[nH]c2C(F)(F)F)cc1", "note": "[Example Compound 2, 4-((4-ethylphenyl)methyl)-5-(trifluoromethyl)-1H-pyrazole-3-yl-O-β-D-glucopyranoside uronic acid]", "values": [
      {"measurement": "Inhibition intensity (concentration of the test compounds)", "setting": "[2]; 100 μM test compound", "result": "30% (100 μM)"}
    ]},
    {"smiles": "CCc1ccc(Cc2c(O[C@@H]3O[C@H](COC(=O)OC)[C@@H](O)[C@H](O)[C@H]3O)nn(-c3ccccc3)c2C(F)(F)F)cc1", "note": "[Example Compound 8, 4′-[(4′-ethylphenyl)methyl]-1′-phenyl-5′-trifluoromethyl-1H-pyrazole-3′-O-(6-carbomethoxy)-β-D-glucopyranoside]", "values": [
      {"measurement": "The amount of excreted glucose in urine", "setting": "male Wistar rats [1]", "result": 4.1, "unit": "mg"}
    ]},
    {"smiles": "CCc1ccc(Cc2c(O[C@@H]3O[C@H](COC(=O)OC)[C@@H](O)[C@H](O)[C@H]3O)nn(C(C)C)c2C)cc1", "note": "[Example Compound 16, 4′-[(4-ethylphenyl)methyl]-1′-isopropyl-5′-methyl-1H-pyrazole-3′-O-(6-carbomethoxy)-β-D-glucopyranoside]", "values": [
      {"measurement": "The amount of excreted glucose in urine", "setting": "male Wistar rats [1]", "result": 598, "unit": "mg"},
      {"measurement": "activity on urinary glucose excretion as compared to Example 35 of WO01/16147 (in words)", "setting": "male Wistar rats [1]", "result": "much higher activity"},
      {"measurement": "activity on urinary glucose excretion (in words)", "setting": "male Wistar rats [1]", "result": "particularly high activity"},
      {"measurement": "The amount of excreted glucose in urine", "setting": "male Wistar rats [3]; 3 mg/kg oral", "result": 28, "unit": "mg"},
      {"measurement": "The amount of excreted glucose in urine", "setting": "male Wistar rats [3]; 10 mg/kg oral", "result": 263, "unit": "mg"},
      {"measurement": "The amount of excreted glucose in urine", "setting": "male Wistar rats [3]; 30 mg/kg oral", "result": 294, "unit": "mg"},
      {"measurement": "activity on urinary glucose excretion (in words)", "setting": "male Wistar rats [3]; orally administered in lower doses such as 30 mg/kg or lower", "result": "still has high activity"}
    ]},
    {"smiles": "CCc1ccc(Cc2c(O[C@@H]3O[C@H](COC(=O)OC)[C@@H](O)[C@H](O)[C@H]3O)nn(Cc3ccccc3)c2C(F)(F)F)cc1", "note": "[Example Compound 4, 4′-[(4′-ethylphenyl)methyl]-1′-benzyl-5′-trifluoromethyl-1H-pyrazole-3′-O-(6-carbomethoxy)-β-D-glucopyranoside]", "values": [
      {"measurement": "The amount of excreted glucose in urine", "setting": "male Wistar rats [1]", "result": 27, "unit": "mg"}
    ]},
    {"smiles": "COC(=O)OC[C@H]1O[C@@H](Oc2nn(C(C)C)c(C)c2Cc2ccc(OC)c(F)c2)[C@H](O)[C@@H](O)[C@@H]1O", "note": "[Example Compound 10, 4′-[(3′-fluoro-4′-methoxyphenyl)methyl]-1′-isopropyl-5′-methyl-1H-pyrazole-3′-O-(6-carbomethoxy)-β-D-glucopyranoside]", "values": [
      {"measurement": "The amount of excreted glucose in urine", "setting": "male Wistar rats [1]", "result": 734, "unit": "mg"},
      {"measurement": "activity on urinary glucose excretion as compared to Example 35 of WO01/16147 (in words)", "setting": "male Wistar rats [1]", "result": "much higher activity"},
      {"measurement": "activity on urinary glucose excretion (in words)", "setting": "male Wistar rats [1]", "result": "particularly high activity"}
    ]}
  ]
}
